Laboratory results: patent US12104201B2, “Engineered gyri-like mutein aptamers, and related methods” (CROSSLIFE TECHNOLOGIES INC., priority 2019, dated 2024)
Entries after “also recorded” stand apart in the source; their conditions may differ. Like-named read-outs stand apart in the source and are kept apart here.

How the values were obtained:
[1] = biological target: T1, CTR107 WT (C. tepidium Gyrl-like protein, wild type, SEQ ID NO:4) (Chlorobaculum tepidum, UniProt Q8KFZ1); assay: biochemical; format: binding; conditions: for Kd: read-out: dissociation constant
T1 construct: begins […]

[2] = biological target: T2, SAV2435 WT (S. aureus Gyrl-like protein, wild type, SEQ ID NO:2) (Staphylococcus aureus, UniProt A0A0H3K0Y5); format: binding
T2 construct: listing organism Escherichia coli is only the host

[3] = biological target: T3, LIN2189 WT (L. innocua Gyrl-like protein, wild type, SEQ ID NO:6) (Listeria innocua, UniProt Q929T5); assay: Fluorescence binding assay (enhancement/quenching of dye fluorescence)
T3 construct: recombinant, purified
T3 sequence (Q929T5 with tags, fused parts or gaps): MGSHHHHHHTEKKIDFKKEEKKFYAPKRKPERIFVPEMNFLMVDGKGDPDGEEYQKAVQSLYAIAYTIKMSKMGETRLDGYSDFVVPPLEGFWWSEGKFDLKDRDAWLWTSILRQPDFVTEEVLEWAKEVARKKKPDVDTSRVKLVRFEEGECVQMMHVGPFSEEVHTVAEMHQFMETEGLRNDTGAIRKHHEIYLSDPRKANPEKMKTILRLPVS
Description: Fluorescence Binding Assay
CTR107 when added at 10 μM induced a 10-fold increase in DFHBI fluorescence (FIG. 6A).
Malachite Green fluoresces in the far-red regions when stimulated by binding aptamers, therefore we monitored its fluorescence emission at 665-720 nm after exciting at 635 nm.
Thioflavin T is a benzothiazole dye that has also been used in many fluorescence applications. […] The Corn aptamer is able to bind to two Thioflavin T molecules at a homodimer interface formed by G-quadruplexes. We tested whether Gyrl-like proteins could function as fluorescence enhancement aptamers of Thioflavin T. Thioflavin T has excitation and emission maxima of […], respectively. We probed the fluorescence enhancing properties of SAV2435, CTR107 and LIN2189 variants on Thioflavin T (FIG. 8). […] All other variants display either a small 4-6 fold increase or no increase in Thioflavin T fluorescence.

[4] = biological target: T4, C. tepidium CTR107 variant Y106W (SEQ ID NO:20) (Chlorobaculum tepidum, UniProt Q8KFZ1, Y106W); assay: biochemical; format: binding
T4 sequence (Q8KFZ1 with tags, fused parts or gaps Y106W): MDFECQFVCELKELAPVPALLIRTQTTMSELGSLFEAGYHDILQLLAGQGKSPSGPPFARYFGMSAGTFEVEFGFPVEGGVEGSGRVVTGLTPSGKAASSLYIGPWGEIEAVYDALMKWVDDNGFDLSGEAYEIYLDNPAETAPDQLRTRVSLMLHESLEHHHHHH

[5] = tested on: C. tepidium CTR107 variant Y106W (SEQ ID NO:20); assay: biochemical; format: binding
[6] = biological target: S. aureus SAV2435 variant V105W (SEQ ID NO:10) (Staphylococcus aureus, UniProt A0A0H3K0Y5, V105W); format: binding
[7] = biological target: S. aureus SAV2435 variant Y137W (SEQ ID NO:16) (Staphylococcus aureus, UniProt A0A0H3K0Y5, V105W/Y137W); format: binding; conditions: Oxazine 170
[8] = biological target: S. aureus SAV2435 variant P106W (SEQ ID NO:12) (Staphylococcus aureus, UniProt A0A0H3K0Y5, P106W); format: binding
[9] = biological target: S. aureus SAV2435 variant N27W (SEQ ID NO:8) (Staphylococcus aureus, UniProt A0A0H3K0Y5, Q27W); format: binding; conditions: Oxazine 170
[10] = biological target: S. aureus SAV2435 variant E135Q (SEQ ID NO:14) (Staphylococcus aureus, UniProt A0A0H3K0Y5, E135Q/V105W); format: binding; conditions: Oxazine 170
[11] = biological target: C. tepidium CTR107 variant E36R (SEQ ID NO:18) (Chlorobaculum tepidum, UniProt Q8KFZ1, E36R); format: binding; conditions: 500 nM SYTO9
[12] = biological target: T5, C. tepidium CTR107 variant E133Q (SEQ ID NO:22) (Chlorobaculum tepidum, UniProt Q8KFZ1, E133Q); format: binding; conditions: 500 nM SYTO9
T5 sequence (Q8KFZ1 with tags, fused parts or gaps E133Q): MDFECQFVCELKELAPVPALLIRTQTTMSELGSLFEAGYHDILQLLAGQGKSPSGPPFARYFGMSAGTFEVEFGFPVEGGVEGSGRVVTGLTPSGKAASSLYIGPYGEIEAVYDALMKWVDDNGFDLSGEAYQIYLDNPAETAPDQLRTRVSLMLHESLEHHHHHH

[13] = pH stability of Thiazole Orange fluorescence module
[14] = Acridine Orange fluorescence assay; conditions: 500 nM Acridine Orange
[15] = UV fluorescence quenching of Oxazine 170 and reversibility; conditions: UV light
[16] = FAM fluorescence quenching assay; format: biochemical; conditions: 1 μM FAM, saturating protein
Source text: The fluorescence enhancing or quenching properties of Gyrl-like proteins can be used as a tool for identifying aptamers for target organic compounds. Building on Examples 1-8 we designed a protocol for identifying aptamers that bind to fluorescent dyes 5(6)-Carboxyfluorescein (FAM) and 5-Carboxytetramethylrhodamine (TAMRA) (FIG. 4). Both dyes are similar in structure and fluorescence in the green and red regions, respectively. The binding of FAM and TAMRA by Gyrl-like variant aptamers will result in enhancement or quenching of fluorescence. The invention method starts with screening our 3-selected wildtype Gyrl-like proteins to determine which can alter the fluorescence of FAM in solution (FIG. 11A).

TAMRA-DNA = assay: TAMRA-labeled DNA fluorescence quenching assay; conditions: 5 nM protein
[17] = Colorimetric conversion of Iodonitrotetrazolium to Formazan; conditions: 100 μM NADH; 500 μM Iodonitrotetrazolium; 5 minutes
[18] = 500 nM Malachite Green, 10 μM protein, ex 635 nm, em 665-720 nm
[19] = 100 nM Oxazine 170, 100 nM protein
[20] = 500 nM Oxazine 170, saturating protein
[21] = 1 μM Thiazole Orange, saturating protein
[22] = 1 μM SYTO9, 10 μM protein, em 665-720 nm
[23] = 1 μM SYTO9, 10 μM protein, ex 470 nm, em 510-580 nm

T1 sequence (Q8KFZ1 entry or part of it): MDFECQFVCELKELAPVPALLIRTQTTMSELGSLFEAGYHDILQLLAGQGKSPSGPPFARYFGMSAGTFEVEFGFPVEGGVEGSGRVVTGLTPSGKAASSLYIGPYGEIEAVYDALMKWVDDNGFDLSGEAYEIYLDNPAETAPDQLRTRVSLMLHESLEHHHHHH
Sequence of C. tepidium CTR107 variant E36R (SEQ ID NO:18) (Q8KFZ1 entry or part of it E36R): as the sequence (Q8KFZ1 entry or part of it) above, with E36R counted along it

CC1=N/C(=C\c2cc(F)c(O)c(F)c2)C(=O)N1C [DFHBI]
increase in fluorescence ([1]; DFHBI, 10 μM protein): 10 fold | increase in fluorescence (green channel) ([2]; 500 nM DFHBI, 10 μM protein): 20 fold | effect on fluorescence ([3]; 500 nM DFHBI): no effect on fluorescence

COc1cccc2c1C(=O)c1c(O)c3c(c(O)c1C2=O)C[C@@](O)(C(C)=O)C[C@@H]3O[C@H]1C[C@H](N)[C@H](O)[C@H](C)O1 [Daunorubicin]
Kd [4]: 42 nM | fluorescence decrease (green channel) ([4]; 50 μM daunorubicin): 3 fold | increase in binding affinity compared to wildtype CTR107 ([5]; Daunorubicin): approximately 100 fold | fluorescence decrease (green channel) ([1]; 50 μM daunorubicin): greater than 2 fold | Kd ([1]; Daunorubicin, nonlinear regression, Hill equation): 4000 nM

CN(C)c1ccc(C(=C2C=CC(=[N+](C)C)C=C2)c2ccccc2)cc1 [Malachite Green]
increase in fluorescence (red channel) [1, 18]: 18 fold | increase in fluorescence (red channel) [2, 18]: 10 fold | effect on fluorescence enhancement ([3]; 500 nM Malachite Green): no effect on fluorescence enhancement

CCN=c1cc2oc3cc(NCC)c(C)cc3nc-2c2ccccc12 [Oxazine 170]
fluorescence decrease at 100 nM protein [6, 19]: 60% | decrease in fluorescence ([4]; Oxazine 170): 47 fold | quenching potency relative to CTR107 WT ([5]; Oxazine 170): 5 fold | quenching effect [7]: small decrease | fluorescence decrease at 100 nM protein [8, 19]: 60% | reduction in fluorescence (red channel) [1, 20]: 6 fold | reduction in fluorescence [9]: 529 fold | shut-off of fluorescence [9]: ~100% | reduction in fluorescence [10]: 303 fold | shut-off of fluorescence [10]: ~100% | protein concentration for 50% quenching ([2]; 100 nM Oxazine 170): 10 to 50 nM | fluorescence shut-off at 100 nM protein [2, 19]: ~100% | decrease in fluorescence (red channel) [2, 20]: 303 fold | shut-off of fluorescence [2, 20]: ~100%

CN1C(=Cc2cc[n+](C)c3ccccc23)Sc2ccccc21 [Thiazole Orange]
fluorescence enhancement vs. dye alone (red channel) ([6]; Thiazole Orange): 50 fold | enhancement relative to wildtype ([6]; Thiazole Orange, vs SAV2435 WT): 3 fold | fluorescence enhancement (green channel) ([4]; Thiazole Orange): 13 fold | fluorescence enhancement (red channel) ([4]; Thiazole Orange): 20 fold | fluorescence enhancement vs. dye alone (red channel) ([8]; Thiazole Orange): 50 fold | enhancement relative to wildtype ([8]; Thiazole Orange, vs SAV2435 WT): 3 fold | effect on fluorescence [1, 21]: no effects; also recorded: no enhancement | increase in fluorescence (green channel) [2, 21]: 50 fold | increase in fluorescence (red channel) [2, 21]: 5 fold | fluorescence increase (channel not stated) ([2]; Thiazole Orange): 20 fold | effect on fluorescence [3, 21]: no effects

Cc1ccc2c(c1)sc(-c1ccc(N(C)C)cc1)[n+]2C [Thioflavin T]
fluorescence enhancement (green and red channel) ([1]; Thioflavin T): 50 fold | fluorescence enhancement (green channel) ([3]; Thioflavin T): 13 fold | fluorescence enhancement (red channel) ([3]; Thioflavin T): 50 fold

SYTO9
fluorescence enhancement (green channel) ([4]; 500 nM SYTO9): 115 fold | fluorescence enhancement (red channel) ([4]; 500 nM SYTO9): 19 fold | fluorescence enhancement (red channel) [1, 22]: 33 fold | fluorescence enhancement (green channel) [1, 23]: 84 fold | Kd ([1]; SYTO9, estimated, fluorescence enhancement vs. protein concentration, Hill fit): 302 nM | fluorescence enhancement compared to wildtype CTR107 [11]: weaker enhancement than wildtype | fluorescence enhancement (red channel) [2, 22]: 11 fold | fluorescence enhancement (green channel) [2, 23]: 21 fold | fluorescence enhancement (green channel) [12]: 157 fold | fluorescence enhancement (red channel) [12]: 55 fold | fluorescence enhancement (red and green channel) ([3]; SYTO9): small enhancement

B1: SAV2435 P106W: SAV2435 variant aptamer, SEQ ID NO:12 (protein, listed as Escherichia coli)
chain: MEYQLQQLASLTLVGIKETYENGRQAQQHIAGFWQRCYQEGVIADLQLKNNGDLAGILGLCIPELDGKMSYMIAVTGDNSADIAKYDVITLASSKYMVFEAQGAVWKAVQQKMEEVHHYIHQYQANTVKSAPFFELYQDGDTTSEKYITEIWMPVKGLEHHHHHH
decrease in Thiazole Orange fluorescence under acidic conditions ([13]; pH 3): 2 fold | stability of Thiazole Orange fluorescence under basic conditions ([13]; pH 11): slightly more stable than acidic | Acridine Orange fluorescence increase [14]: doubled the fluorescence intensity

B2: SAV2435 E135Q: SAV2435 variant aptamer, SEQ ID NO:14 (protein, listed as Escherichia coli)
chain: MEYQLQQLASLTLVGIKETYENGRQAQQHIAGFWQRCYQEGVIADLQLKNNGDLAGILGLCIPELDGKMSYMIAVTGDNSADIAKYDVITLASSKYMVFEAQGAWPKAVQQKMEEVHHYIHQYQANTVKSAPFFQLYQDGDTTSEKYITEIWMPVKGLEHHHHHH
Acridine Orange fluorescence increase [14]: doubled the fluorescence intensity

B3: SAV2435 Y137W: SAV2435 variant aptamer, SEQ ID NO:16 (protein, listed as Escherichia coli)
chain: MEYQLQQLASLTLVGIKETYENGRQAQQHIAGFWQRCYQEGVIADLQLKNNGDLAGILGLCIPELDGKMSYMIAVTGDNSADIAKYDVITLASSKYMVFEAQGAWPKAVQQKMEEVHHYIHQYQANTVKSAPFFELWQDGDTTSEKYITEIWMPVKGLEHHHHHH
shut-off of Oxazine 170 red UV fluorescence [15]: non-quencher

B4: LIN2189 E157A: LIN2189 variant aptamer, SEQ ID NO:28 (protein, listed as Escherichia coli)
chain: MGSHHHHHHTEKKIDFKKEEKKFYAPKRKPERIFVPEMNFLMVDGKGDPDGEEYQKAVQSLYAIAYTIKMSKMGETRLDGYSDFVVPPLEGFWWSEGKFDLKDRDAWLWTSILRQPDFVTEEVLEWAKEVARKKKPDVDTSRVKLVRFEEGECVQMMHVGPFSEAVHTVAEMHQFMETEGLRNDTGAIRKHHEIYLSDPRKANPEKMKTILRLPVS
decrease in FAM fluorescence [16]: no changes in fluorescence quenching compared to LIN2189 WT | effect on 100 nM TAMRA-DNA fluorescence (TAMRA-DNA): no effects on TAMRA fluorescence

B5: CTR107 E133Q: CTR107 variant aptamer, SEQ ID NO:22 (protein, listed as Escherichia coli)
chain: MDFECQFVCELKELAPVPALLIRTQTTMSELGSLFEAGYHDILQLLAGQGKSPSGPPFARYFGMSAGTFEVEFGFPVEGGVEGSGRVVTGLTPSGKAASSLYIGPYGEIEAVYDALMKWVDDNGFDLSGEAYQIYLDNPAETAPDQLRTRVSLMLHESLEHHHHHH
color change of Iodonitrotetrazolium with NADH [17]: faint red signal | Acridine Orange fluorescence increase [14]: doubled the fluorescence intensity
